# Assay results: the supplement of paper PMC10733146
# Experiments:
# Experiment in all cases: viability relative to DMSO control (fraction); higher = less drug effect (more viable cells)
# Conditions in all cases: 48 h
# [1] = system: primary B-PLL patient cells (S016)
# How it was run: (§1)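 The cells were primary mononuclear tumour cells, either fresh or cryopreserved, isolated by Ficoll from blood or bone marrow or derived from processed lymph node. Each well of a 384-well plate received 4 × 10^4 cells onto compounds pre-plated at five concentrations, with one well per concentration. The medium was RPMI-1640 with penicillin/streptomycin, L-glutamine and human serum, and plates stood at 37 °C and 5% CO2 for 48 h. Viability is reported as CellTiter-Glo luminescence relative to the median of 16 inner DMSO wells.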
# [2] = system: primary AML patient cells (S009)
# How it was run: as §1
# [3] = system: primary AML patient cells (S002)
# How it was run: as §1
# [4] = system: primary T-PLL patient cells (S008)
# How it was run: as §1
# [5] = system: primary AML patient cells (S012)
# How it was run: as §1
# [6] = system: primary MCL patient cells (S041)
# How it was run: as §1
# [7] = system: primary MCL patient cells (S068)
# How it was run: as §1
# [8] = system: primary AML patient cells (S085)
# How it was run: as §1
# [9] = system: primary AML patient cells (S037)
# How it was run: as §1
# [10] = system: primary AML patient cells (S011)
# How it was run: as §1
# [11] = system: primary MCL patient cells (S053)
# How it was run: as §1
# [12] = system: primary AML patient cells (S081)
# How it was run: as §1
# [13] = system: primary BL patient cells (S005)
# How it was run: as §1
# [14] = system: primary FL patient cells (S022)
# How it was run: as §1
# [15] = system: primary AML patient cells (S017)
# How it was run: as §1
# [16] = system: primary AML patient cells (S021)
# How it was run: as §1
# [17] = system: primary FL patient cells (S087)
# How it was run: as §1
# [18] = system: primary AML patient cells (S019)
# How it was run: as §1
# [19] = system: primary AML patient cells (S091)
# How it was run: as §1
smiles,measurement,setting,value
O=C(Nc1nc2ccccc2n1CCN1CCOCC1)c1cccc([N+](=O)[O-])c1 [IRAK-1/4 INHIBITOR I],viability,[1]; 0.016 µM,0.968
same,viability,[1]; 0.08 µM,1.05
same,viability,[1]; 0.4 µM,0.969
same,viability,[1]; 2 µM,0.937
same,viability,[1]; 10 µM,1.04
same,viability,[2]; 0.016 µM,1.01
same,viability,[2]; 0.08 µM,0.993
same,viability,[2]; 0.4 µM,0.965
same,viability,[2]; 2 µM,0.933
same,viability,[2]; 10 µM,0.98
same,viability,[3]; 0.016 µM,0.955
same,viability,[3]; 0.08 µM,1.05
same,viability,[3]; 0.4 µM,0.901
same,viability,[3]; 2 µM,0.953
same,viability,[3]; 10 µM,1.03
same,viability,[4]; 0.016 µM,0.933
same,viability,[4]; 0.08 µM,1
same,viability,[4]; 0.4 µM,0.935
same,viability,[4]; 2 µM,0.954
same,viability,[4]; 10 µM,1.03
same,viability,[5]; 0.016 µM,0.922
same,viability,[5]; 0.08 µM,0.993
same,viability,[5]; 0.4 µM,0.908
same,viability,[5]; 2 µM,0.954
same,viability,[5]; 10 µM,0.964
same,viability,[6]; 0.016 µM,0.947
same,viability,[6]; 0.08 µM,1.1
same,viability,[6]; 0.4 µM,0.955
same,viability,[6]; 2 µM,0.981
same,viability,[6]; 10 µM,0.993
same,viability,[7]; 0.016 µM,0.977
same,viability,[7]; 0.08 µM,0.997
same,viability,[7]; 0.4 µM,1.13
same,viability,[7]; 2 µM,1.27
same,viability,[7]; 10 µM,1.41
same,viability,[8]; 0.016 µM,0.957
same,viability,[8]; 0.08 µM,0.985
same,viability,[8]; 0.4 µM,1.05
same,viability,[8]; 2 µM,1.04
same,viability,[8]; 10 µM,1.02
same,viability,[9]; 0.016 µM,0.878
same,viability,[9]; 0.08 µM,0.933
same,viability,[9]; 0.4 µM,0.895
same,viability,[9]; 2 µM,0.885
same,viability,[9]; 10 µM,1.02
same,viability,[10]; 0.016 µM,0.949
same,viability,[10]; 0.08 µM,0.934
same,viability,[10]; 0.4 µM,0.972
same,viability,[10]; 2 µM,1.11
same,viability,[10]; 10 µM,0.878
same,viability,[11]; 0.016 µM,0.823
same,viability,[11]; 0.08 µM,0.939
same,viability,[11]; 0.4 µM,0.915
same,viability,[11]; 2 µM,0.977
same,viability,[11]; 10 µM,1.09
same,viability,[12]; 0.016 µM,0.864
same,viability,[12]; 0.08 µM,0.93
same,viability,[12]; 0.4 µM,0.907
same,viability,[12]; 2 µM,0.93
same,viability,[12]; 10 µM,0.915
same,viability,[13]; 0.016 µM,1.02
same,viability,[13]; 0.08 µM,1.09
same,viability,[13]; 0.4 µM,1.04
same,viability,[13]; 2 µM,0.984
same,viability,[13]; 10 µM,1.09
same,viability,[14]; 0.016 µM,0.887
same,viability,[14]; 0.08 µM,0.974
same,viability,[14]; 0.4 µM,0.885
same,viability,[14]; 2 µM,0.915
same,viability,[14]; 10 µM,0.913
same,viability,[15]; 0.016 µM,0.904
same,viability,[15]; 0.08 µM,0.962
same,viability,[15]; 0.4 µM,0.889
same,viability,[15]; 2 µM,0.932
same,viability,[15]; 10 µM,0.937
same,viability,[16]; 0.016 µM,0.924
same,viability,[16]; 0.08 µM,0.954
same,viability,[16]; 0.4 µM,0.907
same,viability,[16]; 2 µM,0.735
same,viability,[16]; 10 µM,0.819
same,viability,[17]; 0.016 µM,0.933
same,viability,[17]; 0.08 µM,1.02
same,viability,[17]; 0.4 µM,0.989
same,viability,[17]; 2 µM,0.994
same,viability,[17]; 10 µM,1.08
same,viability,[18]; 0.016 µM,0.915
same,viability,[18]; 0.08 µM,1.04
same,viability,[18]; 0.4 µM,0.913
same,viability,[18]; 2 µM,0.867
same,viability,[18]; 10 µM,0.909
same,viability,[19]; 0.016 µM,0.911
same,viability,[19]; 0.08 µM,0.936
same,viability,[19]; 0.4 µM,0.951
same,viability,[19]; 2 µM,0.905
same,viability,[19]; 10 µM,0.798
